Data set [1] concerns human embryonic stem cell derived neural stem cells (NSCs). The data set can be described thus: Neural stem cell proliferation assay (neurogenesis assay, ATP levels by CellTiterGlo). It is filed as cell-based. To be noted: 96 h, concentration at which 150% activity of control (100%) is reached, NSC proliferation, ATP levels after 4 days incubation, dose response 8 μM to 8 nM. As for the experimental part:
Neural Stem Cell Proliferation Assay
Neurogenic properties of small molecules are determined based on the proliferation of human embryonic stem cell derived neural stem cells (NSCs) which were derived via a dual smad inhibition as previously described (Chambers, S. M., et al., Highly efficient neural conversion of human ES and iPS cells by dual inhibition of SMAD signaling, Nature biotechnology, 2009. 27(3): p. 275-80.)
Compounds respond is measured by the increase in cells based on ATP levels (Promega:CellTiterGlo®) after an incubation period of 4 days.
NSCs are thawed and expanded over 3 passages. On the 14th day, NSCs are seeded in Polyornithin/Laminin coated 384 well plates at a cell density of 21′000 cells/cm^2 in a media volume of 38 μl. 4 hours after cell seeding, compound solutions are added at a volume of 2 μl. Stock solutions of the compounds (water, 5% DMSO) are diluted to obtain a dose response (11 points, dilution factor is 2), ranging from 8 μM to 8 nM. Controls are run to consistently determine the neurogenic properties of the cells:
Negative (neutral) control is cell culture Media (final DMSO concentration: 0.25%).
1. cell culture Media+100 ng/ml FGF2 (final DMSO concentration: 0.1%)
2. cell culture Media+20 ng/ml EGF (final DMSO concentration: 0.1%)
3. cell culture Media+100 ng/ml Wnt3a (final DMSO concentration: 0.1%)
After 4 days incubation at 37° C., 5% CO2, the amount of ATP per well is quantified. The ATP concentration is proportional to the cell number. ATP is quantified by using the Promega CellTiterGlo® kit. The CellTiterGlo® reagents contain a cell lysis buffer, a thermo stable luciferase (UltraGlo™ recombinant luciferase), magnesium and luciferin. Luciferin reacts with ATP producing oxyluciferin, AMP and light. The luminescence signal is proportional to the ATP content.
The value of negative (neutral) control is determined for each assay plate by taking the average of 16 negative control wells. The neurogenic compound response is calculated for each compound as (compound/Negative Control)*100.
The values of EC150 from the dose response curve are determined for each test compound. The EC150 is the compound concentration at which 150% activity of control (100%) is reached.

As usually defined, the melting point is the temperature of the solid-liquid transition. On to `Cc1cc(CC(C)C)c2c(c1)cc1n2CCCNC1=O` [Example 32, 9-Methyl-7-(2-methylpropyl)-2,3,4,5-tetrahydro-[1,4]diazepino[1,2-a]indol-1-one], for which the melting point turned out to be 160 °C. Moreover, the EC (150% of control) in data set [1] stood at 2.6 µM.
Taken in the same sequence, the figures for `Cc1cc(C)c2c(c1)cc1n2CCNC1=O` [Example 33, 6,8-Dimethyl-3,4-dihydro-2H-pyrazino[1,2-a]indol-1-one] were 253 °C and 4.9 µM.
For `Cc1c2n(c3c(CC(C)C)cc(C#N)cc13)CCCNC2=O` [Example 34, 11-Methyl-7-(2-methylpropyl)-1-oxo-2,3,4,5-tetrahydro-[1,4]diazepino[1,2-a]indole-9-carbonitrile], the melting point was determined as 235 °C. The molecule further gave an EC (150% of control) in data set [1] of 0.13 µM.
Taken in the same sequence, the figures for `Cc1c2n(c3c(C)cc(C#N)cc13)CCCNC2=O` [Example 35, 7,11-Dimethyl-1-oxo-2,3,4,5-tetrahydro-[1,4]diazepino[1,2-a]indole-9-carbonitrile] were 255 °C and 3.19 µM.
With `COc1cc(CC(C)C)c2c(c1)cc1n2CCNC1=O` [Example 36, 8-Methoxy-6-(2-methylpropyl)-3,4-dihydro-2H-pyrazino[1,2-a]indol-1-one], the melting point was found to be 175 °C. This molecule registered an EC (150% of control) in data set [1] of 4.1 µM.
Molecule `CC(C)Cc1cc(OC(F)(F)F)cc2cc3n(c12)CCNC3=O` [Example 37, 6-(2-Methylpropyl)-8-(trifluoromethoxy)-3,4-dihydro-2H-pyrazino[1,2-a]indol-1-one] showed a melting point of 166 °C. The EC (150% of control) in data set [1] was determined as 0.89 µM.
Taken in the same sequence, the figures for `Cc1c2n(c3c(CC(C)C)cc(Cl)cc13)CCCNC2=O` [Example 38, 9-Chloro-11-methyl-7-(2-methylpropyl)-2,3,4,5-tetrahydro-[1,4]diazepino[1,2-a]indol-1-one] were 176 °C and 0.37 µM.
`Cc1c2n(c3c(C)cc(Cl)cc13)CCCNC2=O` [Example 39, 9-Chloro-7,11-dimethyl-2,3,4,5-tetrahydro-[1,4]diazepino[1,2-a]indol-1-one] came in with a melting point of 198 °C. For the same molecule, the EC (150% of control) in data set [1] was 0.36 µM.
For `CC(C)Cc1cc(C#N)cc2cc3n(c12)CCCNC3=O` [Example 40, 7-(2-Methylpropyl)-1-oxo-2,3,4,5-tetrahydro-[1,4]diazepino[1,2-a]indole-9-carbonitrile], in that order: 199 °C and 0.55 µM.
Take `Cc1c2n(c3c(N4CCOCC4)cc(C#N)cc13)CCNC2=O` [Example 41, 10-Methyl-6-morpholin-4-yl-1-oxo-3,4-dihydro-2H-pyrazino[1,2-a]indole-8-carbonitrile]: the melting point was determined as 276 °C. The molecule further showed an EC (150% of control) in data set [1] of 0.092 µM.
For `Cc1c2n(c3c(N4CCS(=O)(=O)CC4)cc(C#N)cc13)CCCNC2=O` [Example 42, 7-(1,1-Dioxo-1,4-thiazinan-4-yl)-11-methyl-1-oxo-2,3,4,5-tetrahydro-[1,4]diazepino[1,2-a]indole-9-carbonitrile], in that order: 393 °C and 0.077 µM.
Taken in the same sequence, the figures for `N#Cc1cc(N2CCS(=O)(=O)CC2)c2c(c1)cc1n2CCCNC1=O` [Example 43, 7-(1,1-Dioxo-1,4-thiazinan-4-yl)-1-oxo-2,3,4,5-tetrahydro-[1,4]diazepino[1,2-a]indole-9-carbonitrile] were 404.5 °C and 0.98 µM.
For `Cc1c2n(c3c(N4CCOCC4)cc(C#N)cc13)CCCNC2=O` [Example 44, 11-Methyl-7-morpholin-4-yl-1-oxo-2,3,4,5-tetrahydro-[1,4]diazepino[1,2-a]indole-9-carbonitrile], in that order: 227 °C and 0.046 µM.
Take `N#Cc1cc(N2CCOCC2)c2c(c1)cc1n2CCCNC1=O` [Example 45, 7-Morpholin-4-yl-1-oxo-2,3,4,5-tetrahydro-[1,4]diazepino[1,2-a]indole-9-carbonitrile]: the melting point was 221 °C. In data set [1], this molecule gave an EC (150% of control) of 0.24 µM.
For `N#Cc1cc(N2CCOCC2)c2c(c1)cc1n2CCNC1=O` [Example 46, 6-Morpholin-4-yl-1-oxo-3,4-dihydro-2H-pyrazino[1,2-a]indole-8-carbonitrile], the melting point turned out to be 280 °C. In data set [1], this molecule displayed an EC (150% of control) of 0.04 µM.
